Test results taken from patent publication EP1379634B1 (THE UNIVERSITY OF GEORGIA RESEARCH FOUNDATION, INC., priority 2001, dated 2002).
Residues, ends and D or L forms follow the SMILES beside them. *: point of attachment. Cbz = O=C(OCc1ccccc1)*; CH2F = FC*

Key:
[1] = test system: purified Taenia solium cysteine protease; test: Protease inactivator inhibition assay against cocktail, EC100 and Ki (Step VII); assay type: biochemical
Excerpt: Once the protease inactivators were synthesized in the organic laboratory, they were to be tested for the lowest efficacious concentrations at which they induced 100% inhibition of the target protease (EC100). The top percent cocktail that was employed in the final vehicle selection step of Step III was employed as the source of competition for the inhibitors. In this case, this was the 7.9% cocktail that was comprised of Z-FR-AFC, Z-FAR-AFC, Z-AP-AFC, Z-AAK-AFC, and Z-VLR-AFC. The final result would be a ranking of transition state candidate protease inactivators with a high ranking directly correlating to a low EC100 value. The following steps describe the assay: • Step A: Initial Screening. To set up the test control, each protease inactivator was first incubated with the 5% cocktail (which provided the final differentiation of vehicles in Step III). To begin with, the protease inactivator was incubated at a concentration of 3 X 10^-9M in 500 ul of assay buffer (0.2 M Citrate, pH 4.9, supplemented with 10mM L-cysteine). This concentration was determined by a series of inhibitor dilutions to be the best inhibitor concentration at which a differentiation in inhibitor potential could be noted. Next, a concentration equal to 4 X 10^-5M for each of the individual cocktail components, was added to the mix. The components were allowed to equilibrate for a period of 30 minutes. Finally, active purified enzyme was added to the tubes at a concentration which was always at least 50 times less than the concentration of the lowest concentration in the mix (so as to provide saturating conditions.) This concentration varied from purification to purification, and the amount that was added depended upon the yield and specific activity of the purified protease. Positive controls were set up similarly as described for test controls, except that solvent was added in substitution for the protease inactivator (in a volume equal to the […] volume addition). All of the protease inactivators could be dissolved in dimethylsulfoxide (DMSO), and therefore, this was the solvent of choice. Negative controls were set up by adding the protease inactivator and the cocktail substrates in a tube, without the protease. All potential non-proteolytic induced liberation of AFC was therefore controlled for in this tube. All controls were set up in triplicate, and experiments repeated a minimum of five times. The assays were incubated at 37°C, overnight. Percent inhibition was calculated as: %Inhibition = ((AFC positive for "SI"−AFC negative for "SI")−(AFC test−AFC negative for "SI"))/(AFC positive for "SI"−AFC negative for "SI") × 100 [formula] • Step B: Inhibitor Dilution Studies and formation of a ranked list of protease inactivators based upon EC100 values. […] Because of this, a dilution study was required in order to determine a viable ranking. Thus, the concentration of each of the protease inactivators was lowered with a dose response setup until the most efficacious concentration for 100% inhibition (EC100) could be determined. The inhibitors had to be diluted to nanomolar levels in order to establish a differentiable EC100 pattern. The final result of the assay was a ranked candidate list of protease inactivators. A lower EC100 was attributable to a higher ranking and vice-versa. • Step C: Determination of Inhibitor Ki and mode of inhibition, and re-ranking of EC100 list with inhibitor Ki. Ki of each of the top ranked protease inactivators, based upon low EC100 values, was assessed next for the top 5 EC100 inhibitors.
In order to determine Ki, all of the high Vmax cocktail substrates were employed for Ki determination (since Ki of the inhibitor for the enzyme is the same regardless of the substrate). To insure the highest accuracy, Ki was to be determined upon a minimum of at least three of the high Kcat substrates. Nonlinear fitting and the Dixon plot were both employed to determine Ki of the top ranked protease inactivators. […]

[2] = biological target: Cathepsin B (Homo sapiens, UniProt P07858); test: Selectivity test (Steps VI and IX), Cathepsin B; assay type: biochemical; conditions: vehicle 4 X 10^-5 M; pH 6.1, substrate Z-ARR-AFC; 40 µM
Protocol: In order to perform the assay, the vehicle (for Step VI) or inhibitor (for Step IX) were incubated with the appropriate substrate in the correct assay buffer and allowed to equilibrate. Subsequently, the protease was added, and the assay was allowed to incubate for an appropriate time. The concentrations used in this experiment were as follows: Vehicle was set up at 4 X 10^-5 M in final assay buffer; Inhibitor was set up at 3 X 10^-10 M in the final assay buffer. Preferably the dosages employed should be the minimal amount of vehicle or inhibitor necessary to induce inhibition. […] Substrates were set up based upon the preferred substrate for cleavage of the particular enzyme.
Positive controls were set up similarly as described for test controls, except that a solvent blank was added in substitution for the inhibitor or vehicle (in a volume equal to the volume of inhibitor or vehicle addition). All of the inhibitors and vehicles could be dissolved in dimethylsulfoxide (DMSO), and therefore, this was the solvent of choice. Negative controls were set up by adding the inhibitor or vehicle and the preferred substrates in a tube without the protease. […]
Percent inhibition was calculated as: %Inhibition = ((AFC positive for "SI"−AFC negative for "SI")−(AFC test−AFC negative for "SI"))/(AFC positive for "SI"−AFC negative for "SI") × 100 [formula] […]

Molecule | % Inhibition of T. solium CP in vitro ([1]; concentration not stated in Table 4) | ranking by EC100 ([1]; dilution study, nanomolar levels) | % inhibition [2]
CC(C)C[C@H](NC(=O)OCc1ccccc1)C(=O)N[C@@H](CC(C)C)C(=O)N[C@@H](Cc1ccc(O)cc1)C(=O)CF [Z-LLY-FMK, Z-Leu-Leu-Tyr-FMK] (Cbz-Leu-Leu-Tyr-CH2F) | 97% | top inhibitors | 
Mu-Leu-Tyr-AFC [Mu-LY-AFC] |  |  | 0%
